From US8901138B2, “Sulfoximine substituted quinazolines for pharmaceutical compositions” (Boehringer Ingelheim International GmbH, priority 2012, dated 2014) come the findings set out here.

pIC50: −log10 of the molar value.

For the first assay, the target named is T1, MNK2a (Homo sapiens, UniProt Q9HBH9).
T1 construct: made in house
T1 sequence (Q9HBH9 whole entry): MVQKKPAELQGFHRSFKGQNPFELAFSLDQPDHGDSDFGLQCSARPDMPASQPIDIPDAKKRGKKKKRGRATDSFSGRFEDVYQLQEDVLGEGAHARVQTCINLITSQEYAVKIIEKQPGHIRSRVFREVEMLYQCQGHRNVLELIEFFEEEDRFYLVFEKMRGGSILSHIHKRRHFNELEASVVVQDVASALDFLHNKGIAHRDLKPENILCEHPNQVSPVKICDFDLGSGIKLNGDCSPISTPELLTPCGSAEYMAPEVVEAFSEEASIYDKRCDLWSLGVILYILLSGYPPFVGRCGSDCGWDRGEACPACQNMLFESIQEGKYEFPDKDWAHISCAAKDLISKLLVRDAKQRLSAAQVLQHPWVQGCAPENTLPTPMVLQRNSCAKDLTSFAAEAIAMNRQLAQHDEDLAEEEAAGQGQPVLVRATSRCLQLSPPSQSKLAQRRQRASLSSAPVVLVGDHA
Description: MNK2a in vitro kinase assay (assay 1), ADP-Glo. The class given is biochemical. The following applies: preactivated GST-MNK2a, 20 μM ATP, read-out: MNK2 IC50. In outline:
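Preactivated GST-MNK2a (10 nM) with eIF4E peptide (25 μM) and ATP (20 μM) in HEPES/DTT/MgCl2 buffer, 90 min at room temperature, final DMSO <3%. ADP formed read by ADP-Glo luminescence and normalised to vehicle and 20 μM reference-inhibitor controls; IC50 from dose-response curves.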
As for `CO[C@H]1CC[C@H](Oc2cc(F)ccc2Nc2ncnc3cc(N=S4(=O)CCN(C(C)=O)CC4)cc(C)c23)CC1` [Example 7.2], the pIC50 (usually the IC50 on a negative log10 scale, so that one unit is a factor of ten) was 8.22.

As to `Cc1cc(N=S(C)(C)=O)cc2ncnc(Nc3ccc(F)cc3OC3CNOC3)c12` (centres unmarked) [Example 7.18], the pIC50 is 8.70.

With `Cc1cc(N=S(C)(C)=O)cc2ncnc(Nc3ccc(F)cc3O[C@@H]3CO[C@H]4[C@@H]3OC[C@H]4OC(C)C)c12` [Example 2.28], the pIC50 was 8.40.

`Cc1cc(N=S(C)(=O)C2CC2)cc2ncnc(Nc3ccc(F)cc3O[C@@H]3CO[C@@H]4CCO[C@@H]43)c12` (some centres unmarked) [Example 2.114]: the pIC50 was 8.70.

As to `Cc1cc(N=S(C)(=O)c2ccccn2)cc2ncnc(Nc3ccc(F)cc3O[C@@H]3CO[C@@H]4CCO[C@@H]43)c12` (some centres unmarked) [Example 2.11], the pIC50 was 8.22.

Take `Cc1cc(N=S(C)(C)=O)cc2ncnc(Nc3ccc(F)cc3O[C@@H]3CO[C@H]4[C@@H]3OC[C@@]4(C)O)c12` [Example 2.45]: the pIC50 was 8.70.

In the case of `CCS(C)(=O)=Nc1cc(C)c2c(Nc3ccc(F)cc3OC3CCOC3)ncnc2c1` (single isomer, unassigned) [Example 7.14], the pIC50 is 8.15.

As to `CO[C@H]1CC[C@H](Oc2cc(F)ccc2Nc2ncnc3cc(N=S4(=O)CCCCC4)cc(C)c23)CC1` [Example 2.84], the pIC50 is 8.70.

`Cc1cc(N=S2(=O)CCCC2)cc2ncnc(Nc3ccsc3O[C@@H]3CCOC3)c12` [Example 2.8]: the negative logarithm of the IC50 (pIC50) is 7.36.

For the compound `Cc1cc(N=S2(=O)CCCC2)cc2ncnc(Nc3ccc(F)cc3O[C@@H]3CC[C@@H]4OCC[C@@H]43)c12` [Example 2.125], the pIC50 is 8.70.

Take `CCOc1cc(N=S(C)(C)=O)cc2ncnc(Nc3ccc(F)cc3O[C@H]3CC[C@H](OC)CC3)c12` [Example 5.4]: the pIC50 was 7.82.

With `Cc1cc(N=S2(=O)CCCCC2)cc2ncnc(Nc3ccc(F)cc3O[C@@H]3CO[C@H]4[C@@H]3OC[C@H]4O)c12` [Example 2.51], the pIC50 is 8.52.

`Cc1cc(N=S(C)(C)=O)cc2ncnc(Nc3ccc(F)cc3O[C@H]3CCOC3)c12` [Example 2.47]: the pIC50 is 8.70.

With `CCS(C)(=O)=Nc1cc(C)c2c(Nc3ccc(F)cc3O[C@@H]3CO[C@H]4[C@@H]3OC[C@H]4OC)ncnc2c1` (some centres unmarked) [Example 2.55], the pIC50 is 8.70.

In the case of `Cc1cc(N=S(C)(C)=O)cc2ncnc(Nc3ccc(F)cc3O[C@@H]3CCCN(CCO)C3)c12` [Example 6.9], the pIC50 was 8.30.

For the compound `CO[C@@H]1CO[C@H]2[C@@H]1OC[C@H]2Oc1cc(F)ccc1Nc1ncnc2cc(N=S(C)(C)=O)cc(F)c12` [Example 2.76], the pIC50 is 8.30.

`CCS(=O)(CC)=Nc1cc(C)c2c(Nc3ccc(F)cc3O[C@H]3CCOC3)ncnc2c1` [Example 2.92]: the pIC50 is 7.89.

A further assay deals with MNK1a (Homo sapiens, UniProt Q9BUB5). Description: MNK1 in vitro kinase assay (assay 2), Z'-LYTE. The assay is classed as biochemical. The following applies: compound concentration of 1 μM. The source says: B. MNK1 In Vitro Kinase Assay (Assay 2)
Sequence of MNK1a (Q9BUB5 1-424 isoform Q9BUB5-2): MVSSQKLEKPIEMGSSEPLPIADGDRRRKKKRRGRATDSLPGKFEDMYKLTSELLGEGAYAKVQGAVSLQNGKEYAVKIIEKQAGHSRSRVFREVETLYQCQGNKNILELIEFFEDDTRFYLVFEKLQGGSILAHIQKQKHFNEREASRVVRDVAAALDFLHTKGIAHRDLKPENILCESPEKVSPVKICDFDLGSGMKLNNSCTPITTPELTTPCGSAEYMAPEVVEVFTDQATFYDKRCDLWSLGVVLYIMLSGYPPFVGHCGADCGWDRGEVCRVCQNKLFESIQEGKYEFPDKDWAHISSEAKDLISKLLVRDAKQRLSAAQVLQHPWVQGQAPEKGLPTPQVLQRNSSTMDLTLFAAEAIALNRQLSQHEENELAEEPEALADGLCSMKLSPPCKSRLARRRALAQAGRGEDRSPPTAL
MNK1 Data can be obtained from the MNK1 Z′-LYTE® assay. The MNK1 Z′-LYTE® screening protocol and assay conditions are also described on www.invitrogen.com.
The assay is described as follows:
The Z′-LYTE® biochemical assay employs a fluorescence-based, coupled-enzyme format and is based on the differential sensitivity of phosphorylated and non-phosphorylated peptides to proteolytic cleavage. The peptide substrate is labeled with two fluorophores—one at each end—that make up a FRET pair.
In the primary reaction, the kinase transfers the gamma-phosphate of ATP to a single tyrosine, serine or threonine residue in a synthetic FRET-peptide. In the secondary reaction, a site-specific protease recognizes and cleaves non-phosphorylated FRET-peptides. Phosphorylation of FRET-peptides suppresses cleavage by the Development Reagent. Cleavage disrupts FRET between the donor (i.e., coumarin) and acceptor (i.e., fluorescein) fluorophores on the FRET-peptide, whereas uncleaved, phosphorylated FRET-peptides maintain FRET. A ratiometric method, which calculates the ratio (the Emission Ratio) of donor emission to acceptor emission after excitation of the donor fluorophore at 400 nm, is used to quantitate reaction progress, as shown in the equation below. Emission Ratio=Coumarin Emission(445 nm)/Fluorescein Emission(520 nm)
ASSAY SETUP: The inhibition of kinase activity of MNK1a was assessed using pre-activated GST-MNK1a. The 2×MKNK1 (MNK1) mixture is prepared in 50 mM HEPES pH 7.5, 0.01% BRIJ-35, 10 mM MgCl2, 4 mM MnCl2, 1 mM EGTA, 2 mM DTT. The final 10 μL Kinase Reaction consists of 13.5-54 ng MKNK1 (MNK1) and 2 μM Ser/Thr 07 in 50 mM HEPES pH 7.5, 0.01% BRIJ-35, 10 mM MgCl2, 2 mM MnCl2, 1 mM EGTA, 1 mM DTT. After the 1 hour Kinase Reaction incubation, 5 μL of a 1:32768 dilution of Development Reagent A is added.
The Test Compounds are screened in 1% DMSO (final) in the well.
All Peptide/Kinase Mixtures are diluted to a 2× working concentration in the MNK1 Kinase Buffer.
All ATP Solutions are diluted to a 4× working concentration in Kinase Buffer (50 mM HEPES pH 7.5, 0.01% BRIJ-35, 10 mM MgCl2, 1 mM EGTA).
Development Reagent Solution:
The Development Reagent is diluted in Development Buffer
Bar-coded Corning, low volume NBS, 384-well plate (Corning Cat. #3676)
1. 2.5 μL-4× Test Compound
2. 5 μL-2× Peptide/Kinase Mixture
5. 60-minute Kinase Reaction incubation at room temperature
6. 5 μL-Development Reagent Solution
8. 60-minute Development Reaction incubation at room temperature
9. Read on fluorescence plate reader and analyze the data
The following equations are used for each set of data points: […]
Correction for Background Fluorescence: FSample−FITCFl Ctl
Emission Ratio (using values corrected for background fluorescence):Coumarin
Emission (445 nm)/Fluorescein Emission (520 nm)
% Phosphorylation (% Phos): 1−((Emission Ratio×F100%)−C100%)/((C0%−C100%)+[Emission Ratio×(F100%−F0%)])*100 % Inhibition: 1−(% PhosSample/% Phos0% Inhibition Ctl)*100 FI=Fluorescence Intensity C100%=Average Coumarin emission signal of the 100% Phos. Control C0%=Average Coumarin emission signal of the 0% Phos. Control F100%=Average Fluorescein emission signal of the 100% Phos. Control F0%=Average Fluorescein emission signal of the 0% Phos. Control Graphing Software
SelectScreen® Kinase Profiling Service uses XLfit from IDBS. The dose response curve is curve fit to model number 205 (sigmoidal dose-response model).
Turning to `CO[C@H]1CC[C@H](Oc2cc(F)ccc2Nc2ncnc3cc(N=S4(=O)CCN(C(C)=O)CC4)cc(C)c23)CC1` [Example 7.2], the inhibition (in general, the change of the read-out against control, counted positive when it falls) at 1 µM is 82%.

Turning to `Cc1cc(N=S(C)(C)=O)cc2ncnc(Nc3ccc(F)cc3OC3CNOC3)c12` (centres unmarked) [Example 7.18], the inhibition at 1 µM came out at 93%.

For the compound `Cc1cc(N=S(C)(C)=O)cc2ncnc(Nc3ccc(F)cc3O[C@@H]3CO[C@H]4[C@@H]3OC[C@H]4OC(C)C)c12` [Example 2.28], the inhibition at 1 µM amounted to 98%.

Take `Cc1cc(N=S(C)(=O)C2CC2)cc2ncnc(Nc3ccc(F)cc3O[C@@H]3CO[C@@H]4CCO[C@@H]43)c12` (some centres unmarked) [Example 2.114]: the inhibition at 1 µM is 96%.

As for `Cc1cc(N=S(C)(=O)c2ccccn2)cc2ncnc(Nc3ccc(F)cc3O[C@@H]3CO[C@@H]4CCO[C@@H]43)c12` (some centres unmarked) [Example 2.11], the inhibition at 1 µM was found to be 92%.

On to `Cc1cc(N=S(C)(C)=O)cc2ncnc(Nc3ccc(F)cc3O[C@@H]3CO[C@H]4[C@@H]3OC[C@@]4(C)O)c12` [Example 2.45], for which the inhibition at 1 µM turned out to be 90%.

On to `CO[C@H]1CC[C@H](Oc2cc(F)ccc2Nc2ncnc3cc(N=S4(=O)CCCCC4)cc(C)c23)CC1` [Example 2.84], for which the inhibition at 1 µM was found to be 91%.

For the compound `Cc1cc(N=S2(=O)CCCC2)cc2ncnc(Nc3ccsc3O[C@@H]3CCOC3)c12` [Example 2.8], the inhibition at 1 µM was 64%.

Consider `Cc1cc(N=S2(=O)CCCC2)cc2ncnc(Nc3ccc(F)cc3O[C@@H]3CC[C@@H]4OCC[C@@H]43)c12` [Example 2.125], for which the inhibition at 1 µM came out at 94%.

For `CCOc1cc(N=S(C)(C)=O)cc2ncnc(Nc3ccc(F)cc3O[C@H]3CC[C@H](OC)CC3)c12` [Example 5.4], the inhibition at 1 µM came out at 78%.

As for `Cc1cc(N=S2(=O)CCCCC2)cc2ncnc(Nc3ccc(F)cc3O[C@@H]3CO[C@H]4[C@@H]3OC[C@H]4O)c12` [Example 2.51], the inhibition at 1 µM is 101%.

For the compound `Cc1cc(N=S(C)(C)=O)cc2ncnc(Nc3ccc(F)cc3O[C@H]3CCOC3)c12` [Example 2.47], the inhibition at 1 µM came to 97%.

In the case of `CCS(C)(=O)=Nc1cc(C)c2c(Nc3ccc(F)cc3O[C@@H]3CO[C@H]4[C@@H]3OC[C@H]4OC)ncnc2c1` (some centres unmarked) [Example 2.55], the inhibition at 1 µM was determined as 99%.

For the compound `Cc1cc(N=S(C)(C)=O)cc2ncnc(Nc3ccc(F)cc3O[C@@H]3CCCN(CCO)C3)c12` [Example 6.9], the inhibition at 1 µM is 95%.

`CO[C@@H]1CO[C@H]2[C@@H]1OC[C@H]2Oc1cc(F)ccc1Nc1ncnc2cc(N=S(C)(C)=O)cc(F)c12` [Example 2.76]: the inhibition at 1 µM is 100%.

`CCS(=O)(CC)=Nc1cc(C)c2c(Nc3ccc(F)cc3O[C@H]3CCOC3)ncnc2c1` [Example 2.92]: the inhibition at 1 µM was determined as 83%.

Still in this assay, the particulars now being: compound concentration of 1 μM, 1 µM.
`CCS(C)(=O)=Nc1cc(C)c2c(Nc3ccc(F)cc3OC3CCOC3)ncnc2c1` (single isomer, unassigned) [Example 7.14]: the “% Inhibition of MNK1” value amounted to 91%.

Staying with this assay, now noted: pre-activated GST-MNK1a.
Compound `CO[C@@H]1CO[C@H]2[C@@H]1OC[C@H]2Oc1cc(F)ccc1Nc1ncnc2cc(N=S(C)(C)=O)cc(F)c12` [Example 2.76] gave a pIC50 of 7.24.
